Laboratory results: patent US20170260178A1 (SPERO GYRASE, INC., priority 2012, published 2017)

Legend:
S. aureus (ATCC 29213) = assay: Bacterial assay: MIC against S. aureus; format: cell-based, Staphylococcus aureus; conditions: Staphylococcus aureus, ATCC29213, read-out: minimal inhibitory concentration (MIC)
S. pyogenes (ATCC 51339) = assay: Bacterial assay: MIC against S. pyogenes; format: cell-based, Streptococcus pyogenes; conditions: Streptococcus pyogenes, ATCC51339, read-out: minimal inhibitory concentration (MIC)
[1] = system: H. influenzae (ATCC 49247); assay: Bacterial assay: MIC against H. influenzae; format: cell-based; conditions: Haemophilus influenzae, ATCC49247; H. influenzae ATCC 49247; read-out: minimal inhibitory concentration (MIC)
S. aureus ATCC29213 = assay: Rat thigh infection model; format: in vivo; conditions: neutropenic Sprague-Dawley rats, IV ≦40 mg/kg
Protocol: The thighs of Sprague-Dawley rats (250-275 g), rendered neutropenic by the intraperitoneal administration of cyclophosphamide (75 mg/kg on days −4 and −1), were inoculated with approximately 1×10^7 cfus of S. aureus ATCC29213.
Compounds were administered as indicated 2 hours later and the cfus enumerated at various times post dosing by harvesting the thighs, homogenising in PBS on ice and plating serial dilutions onto CLED agar plates for growth at 37° C. and colony counting.

S. pneumoniae ATCC6301 [2] = assay: Mouse lung infection model (Gram positive); format: in vivo; conditions: CD-1 mice, IV 30 mg/kg, cfus at 48 hours post inoculation
Protocol: Anaesthetised female CD-1 mice (18-22 g) were inoculated intranasally with approximately 10^6 cfus of S. pneumoniae ATCC6301 prepared from a fresh overnight culture by placing 50 μl of inoculum on the nares and allowing the mice to inhale. Compounds were administered as indicated at 24 hours post inoculation and the cfus enumerated at 48 hours post inoculation by harvesting the lungs, homogenising in PBS on ice and plating serial dilutions onto TSA+5% blood plates for growth overnight at 37° C. and colony counting.

S. pneumoniae ATCC6301 [3] = assay: Mouse survival model (lung infection); format: in vivo; conditions: CD-1 mice
Protocol: Anaesthetised female CD-1 mice (18-22 g) were inoculated intranasally with approximately 10^6 cfus of S. pneumoniae ATCC6301 prepared from a fresh overnight culture by placing 50 μl of inoculum on the nares and allowing the mice to inhale. Compounds are administered as indicated at 24, 48 and 72 hours post inoculation and the mice monitored for survival for seven or nine days after infection. […] Similarly, when Compound 17 was dosed IV at 30 mg/kg 90% of mice survived at day seven.

SMILES	MIC (S. aureus (ATCC 29213)) [µg/mL]	MIC (S. pyogenes (ATCC 51339)) [µg/mL]	MIC [1] [µg/mL]	log drop in colony forming units compared to the control (S. aureus ATCC29213) [log]	log drop in colony forming units compared to the control (S. pneumoniae ATCC6301 [2]) [log]	mice surviving (S. pneumoniae ATCC6301 [3]; IV 10 mg/kg, at seven or nine days) [%]	mice survived (S. pneumoniae ATCC6301 [3]; IV 30 mg/kg, at day seven) [%]	survival outcome (S. pneumoniae ATCC6301 [3]; 10 mg/kg)
CCNC(=O)Nc1nc2cc(-c3cnc(C(C)(C)O)nc3)cc(-c3ccccn3)c2s1 [Compound 1, 1-ethyl-3-[5-[2-(1-hydroxy-1-methyl-ethyl)pyrimidin-5-yl]-7-(2-pyridyl)-1,3-benzothiazol-2-yl]urea]	≤ 1	≤ 1	≤ 2	≥ 3	≥ 3	80	–	–
CCNC(=O)Nc1nc2cc(-c3cnc(C(C)O)nc3)cc(-c3ccccn3)c2s1 (centres unmarked) [Compound 17, 1-ethyl-3-[5-[2-(1-hydroxyethyl)pyrimidin-5-yl]-7-(2-pyridyl)-1,3-benzothiazol-2-yl]urea]	≤ 1	≤ 1	≤ 2	–	–	–	90	–
CC(=O)NC[C@H]1CN(c2ccc(N3CCOCC3)c(F)c2)C(=O)O1 [Linezolid, reference compound]	–	–	–	–	–	–	–	dead by day six
CCNC(=O)Nc1nc2cc(-c3cnc([C@H](C)OC(=O)[C@H](N)C(C)C)nc3)cc(-c3ccccn3)c2s1 [Compound 63, [(1S)-1-[5-[2-(ethylcarbamoylamino)-7-(2-pyridyl)-1,3-benzothiazol-5-yl]pyrimidin-2-yl]ethyl] (2R)-2-amino-3-methyl-butanoate]	≤ 1	≤ 1	≤ 2	–	–	–	–	–
CCNC(=O)Nc1nc2cc(-c3cnc([C@H](C)O)nc3)cc(-c3ccccn3)c2s1 [Compound 23, 1-ethyl-3-[5-[2-[(1S)-1-hydroxyethyl]pyrimidin-5-yl]-7-(2-pyridyl)-1,3-benzothiazol-2-yl]urea]	≤ 1	≤ 1	≤ 2	–	–	–	–	–
CCNC(=O)Nc1nc2cc(-c3cnc(C(C)(C)O)nc3)cc(-c3cc(CNC4CC4)ccn3)c2s1 [Compound 53, 1-[7-[4-[(cyclopropylamino)methyl]-2-pyridyl]-5-[2-(1-hydroxy-1-methyl-ethyl)pyrimidin-5-yl]-1,3-benzothiazol-2-yl]-3-ethyl-urea]	≤ 1	≤ 1	≤ 2	–	–	–	–	–
CCNC(=O)Nc1nc2cc(-c3cnc([C@@H](O)[C@H](C)O)nc3)cc(-c3ccccn3)c2s1 (relative stereo) [Compound 7, 1-[5-[2-[(1S*,2R*)-1,2-dihydroxypropyl]pyrimidin-5-yl]-7-(2-pyridyl)-1,3-benzothiazol-2-yl]-3-ethyl-urea]	≤ 1	≤ 1	≤ 2	–	–	–	–	–
CCNC(=O)Nc1nc2cc(-c3cnc(C(C)(C)O)nc3)cc(-c3cc(OCCCN4CCOCC4)ccn3)c2s1 [Compound 38, 1-ethyl-3-[5-[2-(1-hydroxy-1-methyl-ethyl)pyrimidin-5-yl]-7-[4-(3-morpholinopropoxy)-2-pyridyl]-1,3-benzothiazol-2-yl]urea]	≤ 1	≤ 1	≤ 2	–	–	–	–	–
CCNC(=O)Nc1nc2cc(-c3cnc(C(C)O)nc3)cc(-c3cc(CN4C[C@@H](C)O[C@@H](C)C4)ccn3)c2s1 (stereo partly drawn) [Compound 69, 1-[7-[4-[[(2R,6S)-2,6-dimethylmorpholin-4-yl]methyl]-2-pyridyl]-5-[2-(1-hydroxyethyl)pyrimidin-5-yl]-1,3-benzothiazol-2-yl]-3-ethyl-urea]	≤ 1	≤ 1	≤ 2	–	–	–	–	–
[2H]C1([2H])OC([2H])([2H])C([2H])([2H])N(Cc2ccnc(-c3cc(-c4cnc(C(C)O)nc4)cc4nc(NC(=O)NCC)sc34)c2)C1([2H])[2H] (centres unmarked) [Compound 70, 1-ethyl-3-[5-[2-(1-hydroxyethyl)pyrimidin-5-yl]-7-[4-[(2,2,3,3,5,5,6,6-octadeuteriomorpholin-4-yl)methyl]-2-pyridyl]-1,3-benzothiazol-2-yl]urea]	≤ 1	≤ 1	≤ 2	–	–	–	–	–
CNC(=O)Nc1nc2cc(-c3cnc(C(C)(C)O)nc3)cc(-c3ccccn3)c2s1 [Compound 82, 1-[5-[2-(1-hydroxy-1-methyl-ethyl)pyrimidin-5-yl]-7-(2-pyridyl)-1,3-benzothiazol-2-yl]-3-methyl-urea]	≤ 1	≤ 1	≤ 2	–	–	–	–	–
CCNC(=O)Nc1nc2cc(-c3ccc(C(O)C(F)(F)F)nc3)cc(-c3cc(CN4CC(OC)C4)ccn3)c2s1 (centres unmarked) [Compound 155, 1-ethyl-3-[7-[4-[(3-methoxyazetidin-1-yl)methyl]-2-pyridyl]-5-[6-[2,2,2-trifluoro-1-hydroxy-ethyl]-3-pyridyl]-1,3-benzothiazol-2-yl]urea]	≤ 1	≤ 1	≤ 2	–	–	–	–	–
CCNC(=O)Nc1nc2cc(-c3cnc(C(C)(C)O)nc3)cc(-c3cc(CN4CCOCC4)ccn3)c2s1 [Compound 28, 1-ethyl-3-[5-[2-(1-hydroxy-1-methyl-ethyl)pyrimidin-5-yl]-7-[4-(morpholinomethyl)-2-pyridyl]-1,3-benzothiazol-2-yl]urea]	≤ 1	≤ 1	≤ 2	–	–	–	–	–
CCNC(=O)Nc1nc2cc(-c3cnc(C(C)O)nc3)cc(-c3cc(CN4CC(C)OCC4C)ccn3)c2s1 (centres unmarked) [Compound 71, 1-[7-[4-[(2,5-dimethylmorpholin-4-yl)methyl]-2-pyridyl]-5-[2-(1-hydroxyethyl)pyrimidin-5-yl]-1,3-benzothiazol-2-yl]-3-ethyl-urea]	≤ 1	≤ 1	≤ 2	–	–	–	–	–
CCNC(=O)Nc1nc2cc(-c3cnc(C(C)O)nc3)cc(-c3cc(CN4CC[C@H](F)C4)ccn3)c2s1 (stereo partly drawn) [Compound 64, 1-ethyl-3-[7-[4-[[(3S)-3-fluoropyrrolidin-1-yl]methyl]-2-pyridyl]-5-[2-(1-hydroxyethyl)pyrimidin-5-yl]-1,3-benzothiazol-2-yl]urea]	≤ 1	≤ 1	≤ 2	–	–	–	–	–
CCNC(=O)Nc1nc2cc(-c3cnc(C(C)O)nc3)cc(-c3ncccn3)c2s1 (centres unmarked) [Compound 115, 1-ethyl-3-[5-[2-(1-hydroxyethyl)pyrimidin-5-yl]-7-pyrimidin-2-yl-1,3-benzothiazol-2-yl]urea]	≤ 1	≤ 1	≤ 2	–	–	–	–	–
